The values that follow come from paper PMC8533333, “Melatonin Analogues Potently Inhibit MAO-B and Protect PC12 Cells against Oxidative Stress” (Antioxidants, 2021).

The nature of data set [1]: Neuroprotection against 6-OHDA-induced oxidative toxicity in PC12 cells (MTT). The following applies: rat. How it is done:
(§1) Control cells were incubated in an equivalent volume of DMSO to a final concentration of 0.3%. Neuroprotective effects of the tested compounds on the toxicity induced by 6-OHDA or rotenone in PC12 cells were evaluated as described previously with slight modifications. In brief, cells were pre-treated with the tested compounds or rasagiline at the indicated concentrations for 4 h. Next, they were exposed to 6-OHDA (50 μM) or rotenone (1 μM) for 24 h. In another set of experiments, the influence of HO-1 inhibitor, ZnPP, on the neuroprotective effects of the tested compounds against 6-OHDA-induced oxidative damage was investigated as previously reported. Briefly, the cells were pre-treated with the tested compounds for 4 h and then incubated with 0.2 µM of ZnPP for 30 min. Subsequently, 6-OHDA was added at a final concentration of 50 µM and incubated for 24 h.
After the desired treatment, cell viability was determined by MTT assay as described previously. Briefly, MTT was added to the cells at the final concentration of 0.5 mg/mL, which was followed by incubation for 3 h at 37 °C. […] The absorbance of the dissolved solution was measured at 550 nm using a microplate reader (SpectraMax M2^e, Molecular Devices, Sunnyvale, CA, USA). The cell viability was presented as the percentage of the absorbance measured in the vehicle-treated control cells.

Data set [2] in a line: Neuroprotection against rotenone-induced toxicity in PC12 cells (MTT). The following applies: rat. The protocol:
as §1
After the desired treatment, cell viability was determined by MTT assay as described previously. Briefly, MTT was added to the cells at the final concentration of 0.5 mg/mL, which was followed by incubation for 3 h at 37 °C. The supernatants were carefully removed, and then, 300 μL of DMSO was added to each well to dissolve formazan precipitate. The absorbance of the dissolved solution was measured at 550 nm using a microplate reader (SpectraMax M2^e, Molecular Devices, Sunnyvale, CA, USA). The cell viability was presented as the percentage of the absorbance measured in the vehicle-treated control cells.

As for `NCCc1cc(O)c(O)cc1O` [6-OHDA, 6-Hydroxydopamine], the viability at 24 h, 50 µM in data set [1] is 50.9 ± 3.1%.
As for `C=C(C)[C@H]1Cc2c(ccc3c2O[C@@H]2COc4cc(OC)c(OC)cc4[C@@H]2C3=O)O1` [rotenone, reference compound], the viability at 24 h, 1 μM in data set [2] was found to be 64.4 ± 1.4%.

The term viability denotes the share of living cells, or the viability signal relative to a control. Low values mean more harm to the cells, high ones less harm to the cells.
